Laboratory results: PubChem BioAssay AID330 (DTP/NCI, 2004)
“And” between values parts separate entries of the source, which are not always exact repeats. Identical values can stand only once. Toxic doses and inconclusive results are not listed. The calls were made as follows: active = survival T/C of 150% or more; inactive = T/C below 125% in these data.

Test system: P388 leukemia ip, CD2F1 mice, survival T/C
Test: NCI In Vivo Anticancer Drug Screen. Data for tumor model P388 Leukemia (intraperitoneal) in CD2F1 (CDF1) mice
Settings: endpoint: median survival time, higher = longer survival
Method in brief: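 Mice carrying the transplanted tumor received test compound or vehicle. Survival was recorded in each group, and the value is the treated-group measurement divided by that of the vehicle-treated control group.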

[1] = dose: 50.0 mg/kg/injection, schedule: Q01DX009 (ip), vehicle: saline with Tween-80
[2] = dose: 50.0 mg/kg/injection, schedule: Q01DX009 (ip), vehicle: saline
[3] = dose: 100.0 mg/kg/injection, schedule: Q01DX009 (ip), vehicle: saline
[4] = dose: 200.0 mg/kg/injection, schedule: Q01DX009 (ip), vehicle: saline with Tween-80
[5] = dose: 200.0 mg/kg/injection, schedule: Q01DX009 (ip), vehicle: saline
[6] = dose: 50.0 mg/kg/injection, schedule: Q01DX005 (ip), vehicle: Klucel (hydroxypropylcellulose) (HPC)
[7] = dose: 100.0 mg/kg/injection, schedule: Q01DX005 (ip), vehicle: Klucel (hydroxypropylcellulose) (HPC)
[8] = dose: 200.0 mg/kg/injection, schedule: Q01DX005 (ip), vehicle: Klucel (hydroxypropylcellulose) (HPC)
[9] = dose: 6.25 mg/kg/injection, schedule: Q01DX009 (ip), vehicle: Klucel (hydroxypropylcellulose) (HPC)
[10] = dose: 50.0 mg/kg/injection, schedule: Q01DX009 (ip), vehicle: Klucel (hydroxypropylcellulose) (HPC)
[11] = dose: 100.0 mg/kg/injection, schedule: Q01DX009 (ip), vehicle: Klucel (hydroxypropylcellulose) (HPC)
[12] = dose: 200.0 mg/kg/injection, schedule: Q01DX009 (ip), vehicle: Klucel (hydroxypropylcellulose) (HPC)
[13] = dose: 7.5 mg/kg/injection, schedule: Q01DX009 (ip), vehicle: saline
[14] = dose: 15.0 mg/kg/injection, schedule: Q01DX009 (ip), vehicle: saline
[15] = dose: 30.0 mg/kg/injection, schedule: Q01DX009 (ip), vehicle: saline
[16] = dose: 60.0 mg/kg/injection, schedule: Q01DX005 (ip), vehicle: saline with Tween-80
[17] = dose: 120.0 mg/kg/injection, schedule: Q01DX005 (ip), vehicle: saline with Tween-80
[18] = dose: 240.0 mg/kg/injection, schedule: Q01DX005 (ip), vehicle: saline with Tween-80
[19] = dose: 50.0 mg/kg/injection, schedule: Q01DX005 (ip), vehicle: saline with Tween-80
[20] = dose: 100.0 mg/kg/injection, schedule: Q01DX005 (ip), vehicle: saline with Tween-80
[21] = dose: 200.0 mg/kg/injection, schedule: Q01DX005 (ip), vehicle: saline with Tween-80
[22] = dose: 25.0 mg/kg/injection, schedule: Q01DX009 (ip), vehicle: saline with Tween-80
[23] = dose: 100.0 mg/kg/injection, schedule: Q01DX009 (ip), vehicle: saline with Tween-80

Measured: T/C

CN(C)/C=N/c1c(C#N)c(-c2ccccc2)c(-c2ccccc2)n1-c1ccccc1
inactive: [1] 97 % of control | [2] 98 % of control | [3] 93 % of control | [4] 96 % of control | [5] 87 % of control

CC(C)(O)c1cc(=O)n(-c2ccccc2)[nH]1
inactive: [6] 102 % of control | [7] 101 % of control | [8] 105 % of control

C/C(C/C(C)=N/C(N)=S)=N\C(N)=S
inactive: dose: 60.0 mg/kg/injection, schedule: Q01DX005 (ip), vehicle: saline 100 % of control | dose: 120.0 mg/kg/injection, schedule: Q01DX005 (ip), vehicle: saline 95 % of control | dose: 240.0 mg/kg/injection, schedule: Q01DX005 (ip), vehicle: saline 100 % of control

c1ccc(-c2c3ccccc3c[n+]3ccccc23)cc1
inactive: dose: 3.13 mg/kg/injection, schedule: Q01DX009 (ip), vehicle: Klucel (hydroxypropylcellulose) (HPC) 106 % of control | [9] 92 % of control

CCOC(=O)C1(CO)C(=O)Nc2ccccc21 (stereo not given)
inactive: [10] 110 % of control | [11] 106 % of control | [12] 107 % of control

NCCCC(NN)C(=O)O (stereo not given)
inactive: dose: 3.3 mg/kg/injection, schedule: Q01DX009 (ip), vehicle: saline 101 % of control and 90 % of control | dose: 6.6 mg/kg/injection, schedule: Q01DX009 (ip), vehicle: saline 100 % of control and 95 % of control | [13] 100 % of control | dose: 10.0 mg/kg/injection, schedule: Q01DX009 (ip), vehicle: saline 99 % of control and 97 % of control | [14] 109 % of control and 93 % of control | dose: 22.5 mg/kg/injection, schedule: Q01DX009 (ip), vehicle: saline 102 % of control and 110 % of control | [15] 103 % of control

COC(=O)c1c(-c2ccccc2)c(-c2ccccc2)[nH]c(=O)c1C#N
inactive: [16] 108 % of control | [17] 100 % of control | [18] 91 % of control

COc1cc2cccc(OC)c(=O)c2c(O)c1OC
inactive: [6] 86 % of control | [19] 99 % of control | [7] 88 % of control | [20] 95 % of control | [8] 88 % of control | [21] 91 % of control

CCOc1ccc(Nc2cc([N+](=O)[O-])ccc2C(=O)O)cc1
inactive: [1] 91 % of control | [4] 108 % of control

O=c1[nH]c(=O)c2c([nH]1)oc1ccccc12
inactive: [16] 102 % of control | [17] 95 % of control | [18] 98 % of control

CN(C)CCCNc1cccc2c1C(=O)c1c(NCCCN(C)C)cccc1C2=O
inactive: dose: 3.75 mg/kg/injection, schedule: Q01DX009 (ip), vehicle: saline 99 % of control | [13] 105 % of control | dose: 12.5 mg/kg/injection, schedule: Q01DX009 (ip), vehicle: water 98 % of control | [14] 106 % of control | dose: 25.0 mg/kg/injection, schedule: Q01DX009 (ip), vehicle: water 95 % of control | [15] 96 % of control | dose: 60.0 mg/kg/injection, schedule: Q01DX009 (ip), vehicle: saline 90 % of control

COc1cc2c(c(OC)c1OC)-c1ccc(S(C)(=O)=O)c(=O)cc1[C@@H](NC(C)=O)CC2
inactive: dose: 0.78 mg/kg/injection, schedule: Q01DX009 (ip), vehicle: Klucel (hydroxypropylcellulose) (HPC) 105 % of control and 106 % of control | dose: 1.56 mg/kg/injection, schedule: Q01DX009 (ip), vehicle: Klucel (hydroxypropylcellulose) (HPC) 105 % of control and 120 % of control | dose: 3.12 mg/kg/injection, schedule: Q01DX009 (ip), vehicle: Klucel (hydroxypropylcellulose) (HPC) 106 % of control and 111 % of control | [9] 115 % of control | dose: 12.5 mg/kg/injection, schedule: Q01DX009 (ip), vehicle: Klucel (hydroxypropylcellulose) (HPC) 105 % of control and 122 % of control | dose: 25.0 mg/kg/injection, schedule: Q01DX009 (ip), vehicle: Klucel (hydroxypropylcellulose) (HPC) 108 % of control

N#CC(C#N)=C(c1ccccc1)c1ccccc1
inactive: [10] 95 % of control | [11] 110 % of control | [12] 100 % of control

CSC(=S)N=Nc1c(O)[nH]c2ccccc12
inactive: [2] 93 % of control | [3] 96 % of control | [5] 99 % of control

CCO/C=N/c1[nH]c(C)c(C)c1C#N
inactive: [10] 93 % of control | [11] 100 % of control | [12] 105 % of control

O=C1NN=C(C(O)c2ccccc2)C1(O)c1ccccc1 (stereo not given)
inactive: [16] 91 % of control | dose: 100.0 mg/kg/injection, schedule: Q04DX002 (ip), vehicle: distilled water + alcohol 103 % of control | [17] 98 % of control | dose: 200.0 mg/kg/injection, schedule: Q04DX002 (ip), vehicle: distilled water + alcohol 98 % of control | [18] 93 % of control | dose: 400.0 mg/kg/injection, schedule: Q04DX002 (ip), vehicle: distilled water + alcohol 94 % of control

CC(C)(C)N1C(=O)NCC1(C)C
inactive: [2] 105 % of control | [3] 100 % of control | [5] 98 % of control

O=C(NC1c2ccccc2CCc2ccccc21)C(F)(F)F
inactive: dose: 12.5 mg/kg/injection, schedule: Q01DX009 (ip), vehicle: saline with Tween-80 86 % of control | [22] 117 % of control | [1] 90 % of control | [23] 86 % of control | [4] 94 % of control

CN(C)c1ccc([N+](C)(C)Cc2ccc(C[N+](C)(C)c3ccc([N+](C)(C)Cc4ccc(CCl)cc4)cc3)cc2)cc1
inactive: dose: 3.13 mg/kg/injection, schedule: Q01DX001 (ip), vehicle: saline 108 % of control | dose: 6.25 mg/kg/injection, schedule: Q01DX001 (ip), vehicle: saline 112 % of control and 97 % of control

Cn1c2ccccc2c2cnn3cnnc3c21
inactive: dose: 50.0 mg/kg/injection, schedule: Q01DX001 (ip), vehicle: Klucel (hydroxypropylcellulose) (HPC) 91 % of control | dose: 100.0 mg/kg/injection, schedule: Q01DX001 (ip), vehicle: Klucel (hydroxypropylcellulose) (HPC) 88 % of control | dose: 200.0 mg/kg/injection, schedule: Q01DX001 (ip), vehicle: Klucel (hydroxypropylcellulose) (HPC) 96 % of control

O=C1OC2(CCCC2)OC(=O)C1=Cc1ccc([N+](=O)[O-])s1
inactive: [1] 115 % of control | [23] 114 % of control

CC1=C([N+](=O)[O-])[C@@H](N2CCOCC2)[C@](C)(N2CCOCC2)S1
inactive: [6] 105 % of control | [7] 105 % of control | [8] 105 % of control

C/C(=N\N)C1=NNC(C)(C)NN1
inactive: [10] 96 % of control | [11] 96 % of control | [12] 98 % of control

CS/C(N)=N\NC(=O)COc1ccc(Cl)cc1
inactive: [19] 100 % of control | [20] 106 % of control | [21] 100 % of control

COC(c1ccccc1)C(Br)c1ccccc1 (stereo not given)
inactive: dose: 100.0 mg/kg/injection, schedule: Q01DX001 (ip), vehicle: saline with Tween-80 104 % of control | dose: 200.0 mg/kg/injection, schedule: Q01DX001 (ip), vehicle: saline with Tween-80 95 % of control | dose: 400.0 mg/kg/injection, schedule: Q01DX001 (ip), vehicle: saline with Tween-80 104 % of control

CCCCCCCCS(=O)(=O)OCCCCOS(=O)(=O)CCCCCCCC
inactive: dose: 31.25 mg/kg/injection, schedule: Q01DX005 (ip), vehicle: Klucel (hydroxypropylcellulose) (HPC) 103 % of control | dose: 62.5 mg/kg/injection, schedule: Q01DX005 (ip), vehicle: Klucel (hydroxypropylcellulose) (HPC) 103 % of control | dose: 125.0 mg/kg/injection, schedule: Q01DX005 (ip), vehicle: Klucel (hydroxypropylcellulose) (HPC) 103 % of control

ClC12CCC(c3ccccc3)(CC1)CC2
inactive: [10] 105 % of control | [11] 108 % of control | [12] 99 % of control

OC1C=CC2CCC1C2 (stereo not given)
inactive: [1] 107 % of control | [23] 114 % of control | [4] 115 % of control

CCOC(=O)CC1(C)NCCS1 (stereo not given)
inactive: [2] 96 % of control | [3] 99 % of control | [5] 96 % of control

CC1CC[N-]CC1.CC1CC[N-]CC1.CC1CC[N-]CC1.CC1CC[N-]CC1.[Cl][Rh][Cl]
inactive: [22] 104 % of control | [1] 104 % of control

CC1CCN(CC#CCN2C(=O)CCC2=O)CC1
inactive: dose: 25.0 mg/kg/injection, schedule: Q01DX005 (ip), vehicle: Klucel (hydroxypropylcellulose) (HPC) 104 % of control | [6] 103 % of control | [7] 107 % of control | [8] 107 % of control
